Experiment [1] concerns autophagy flux (LC3-II) in HepG2 cell line. The experiment can be described thus: Autophagy flux, LC3-II immunoblot with/without Bafilomycin, HepG2 cell line. It counts as cell-based. To be noted: 4 hours and 24 hours of treatment. On the procedure: Since compound 2-3 induced an inhibition of the proteolytic activity of cathepsins B, D and/or L (see example 1) supporting an inhibition of some lysosomal functions which can affect the cellular autophagy flux, the capacity of compound 2-3 to modulate the cellular autophagy processes and functions was evaluated in two Hepatocellular carcinoma (HCC) cell lines: Huh7 and HepG2. For this purpose, the accumulation of LC3-II (Light Chain 3 phosphatidylethanolamine conjugate) in presence or absence of compound 2-3 was analyzed using immunoblot analysis of LC3-II.
The HepG2 cell line was maintained in DMEM low glucose (Cat #21885025, ThermoFischer) containing 1% penicillin-streptomycin (Cat #P06-07100, Dutscher) and 10% FBS (Cat #SV30160.03C, Dutscher). The Huh7 cell line was maintained in DMEM high glucose (Cat #L0103-500, Dutscher) containing 1% penicillin-streptomycin (Cat #P06-07100, Dutscher) and 10% SVF (Cat #SV30160.03C, Dutscher). Cells lines were cultured at 37° C. with 5% CO2.
The day before the experiment, 6-well plates with 250,000 cells for HepG2 and 310,000 cells for Huh7 in 1.8 mL of medium per well were prepared. […]
After 4 hours and 24 hours of cells treatment, the medium was removed from each well. […] Total protein concentration was assessed using the BCA reagent (Cat #23227, ThermoFischer) and cellular lysates were stored at −80° C. until western-blot analysis. […]

The test system of experiment [2] is diethyl nitrosamine (DEN) cirrhotic rat model of liver fibrosis. The experiment can be described thus: DEN induced cirrhosis in rats, study 1: Sirius red quantification of liver fibrosis. It counts as in vivo. The settings on record: 6 weeks after 14 weeks DEN. An excerpt:
This animal model allows developing an extensive liver fibrosis, leading to a compensated liver cirrhosis with a multifocal hepatocarcinoma (HCC) after 14 weeks of induction (Schiffer, E. et al. Hepatology 2005 (41), 307-314). The DEN cirrhotic rat animal model was used here as a specific animal model of liver fibrosis.
Forty two Fisher 344 male rat (obtained from Charles River Laboratories France, including spare animals), weighting approximately 280 g at the start of the study, were randomized in 5 groups of 8 (groups 1, 2, 3 and 5) or 6 (group 4) animals and housed with 3 animals per cage, given free access to food and water and allowed to acclimate for at least 5 days prior to test initiation.
The DEN cirrhotic rat model was obtained after 14 weekly intraperitoneal injections of DEN (intra-peritoneal injections (i.p.) of DEN at 50 mg/kg/week). The animals were then treated according to Table 9 during 6 weeks. In this in vivo experiment, the anti-fibrotic activity of compound 2-3 was evaluated in liver fibrosis animal model, alone or in combination with Sorafenib (a multikinase inhibitor of Raf-1, B-Raf, VEGFR-2, VEGFR3, PDGFRβ, Flt3 and c-Kit). After 6 weeks of treatment, all animals were sacrificed using CO2 and rat livers were collected for analysis. The quantification of the liver fibrotic tissue was evaluated by Sirius red staining of rat liver sections.
Group 1 contained 8 animals which were daily dosed (q.d.) by oral gavage (per os, p.o.) with the vehicle during 6 weeks.
Group 2 contained 8 animals which were daily dosed (q.d.) by oral gavage (per os, p.o.) with Sorafenib at 10 mg/kg/day during 6 weeks.
Group 3 contained 8 animals which were daily dosed (q.d.) by oral gavage (per os, p.o.) with compound 2-3 at 15 mg/kg/day during 6 weeks.
Group 4 contained 6 animals which were daily dosed (q.d.) by oral gavage (per os, p.o.) with compound 2-3 at 15 mg/kg/day in combination with Sorafenib at 10 mg/kg/day during 6 weeks.
Group 5 contained 8 animals which were daily dosed (q.d.) by oral gavage (per os, p.o.) with compound 2-3 at 30 mg/kg/day during 6 weeks. […]

Entries after “also recorded” stand apart in the source; their conditions may differ. Structures can show the parent of a compound that is named as a salt.

Take `CC(C)(C)NC1CCN(c2cc(NCc3ccc(Cl)cc3)nc3ccccc23)CC1` [2-3, 2-(4-chlorobenzylamino)-4-(4-tert-butylaminopiperidin-1-yl)-quinoline Hydrochloride Salt]: the “accumulation of the LC3-II form” value in experiment [1] is “significantly induced, in a dose-dependent manner, an accumulation of the LC3-II form”. The “autophagy flux (LC3-II Baf+/Baf− ratio)” value in experiment [1] (Hydrochloride Salt) was “inhibition; also recorded: inhibitor of the autophagy flux”. Further, the “reduction of the level of collagen fibers deposition (Sirius red) compared to the control group” value worked out at 41.0% in experiment [2] (group 3: 15 mg/kg/day p.o. q.d., p<0.05) and 45.3% in experiment [2] (group 5: 30 mg/kg/day p.o. q.d., p=0.01).

These data come from patent US11261189B2, “Substituted 2,4 diamino-quinoline as new medicament for fibrosis, autophagy and cathepsins B (CTSB), L (CTSL) and D (CTSD) related diseases” (Genoscience Pharma, priority 2018, dated 2022).
